Paper PMC11292009, “Mapping protein binding sites by photoreactive fragment pharmacophores” (Communications Chemistry, 2024)
Where “and” joins values, the source holds several entries; their conditions need not be identical. Identical values can stand only once.

Columns and labels:
Format in all cases: binding
[1] = test system: CA, Lyo, Myo, BRD4-BD1, KRas G12D, STAT5B-NTD; test: Intact MS labeling compared over all protein targets; conditions: for Labeling of the other protein targets (vs. preferred target): each of the other targets
Protocol: Using a plate-based format with one fragment per well, each fragment was incubated with the target proteins for 15 min to allow for the formation of non-covalent interactions. The plate was then irradiated at 302 or 365 nm for 10 min to enable the bound fragments to crosslink to the protein[26]. Finally, the results were directly analyzed from the plate using intact protein mass spectrometry by observing the mass additions that correspond to successful labeling (Fig. 2c, for labeling % values see Supplementary data). The library was first characterized against three benchmark proteins like carbonic anhydrase (CA), lysozyme (Lyo), and myoglobin (Myo).
The PhP library was screened against BRD4-BD1 and KRas^G12D as follows. Using a Labcyte Echo® 555 Liquid Handler, 150 nL of fragment solution (20 mM) was transferred into a Greiner 384 low-volume plate (white) to prepare the probe plate. The probe plate was placed on ice. 15 μL of protein stock solution (1 μM BRD4-BD1 (GSK/GenScript) or KRas^G12D (GSK/GenScript) in PBS buffer) was dispensed into wells containing fragments. The plate was left on ice for 15 min for incubation, then irradiated at 302 nm for 10 min, and centrifuged (1000 rpm, 1 min) to remove any bubbles. The plate was then analyzed by LCMS-TOF mass spectrometry (Agilent 1200 series liquid chromatography with Agilent Bio-HPLC PLRP-S (1000 Å, 5 µm × 50 mm × 1.0 mm, PL1312-1502) reverse phase HPLC column at 70 °C equipped with an Agilent G6224 time-of-flight (ToF), see Supplementary Note 2 for the full protocols). The deconvoluted spectra were analyzed using R Studio software.
During the analysis, the column temperature was maintained at a constant 60 °C, and a sample volume of 3 µL was injected for each analysis. Data acquisition was conducted in positive ion mode within the m/z 100–2000 (mass-to-charge ratio) range. For the full protocol and spectra of the hits, see Supplementary Note 2.

lysozyme (Lyo) = test: Intact protein MS photoaffinity labeling screen, lysozyme; conditions: intact protein MS after 10 min irradiation
Method in brief: (§1)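 Each fragment was placed in its own well and incubated with the protein for 15 min to allow non-covalent binding. Samples were then analysed directly from the plate by intact protein mass spectrometry, and labeling was scored as mass additions on the protein, reported as labeling %.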

BRD4-BD1 = test system: T1, BRD4-BD1; test: Intact MS photoaffinity labeling screen, BRD4-BD1 (302 nm, LCMS-TOF); conditions: for MS labeling percentage, BRD4: BRD4-BD1, 302 nm 10 min; for BRD4-BD1: experimental hit status flag (0/1); for experimental hit status BRD4-BD1: 0/1 flag
T1 construct: screened the PhP library against the first bromodomain of BRD4 (BRD4-BD1); purchased GSK/GenScript
Method in brief: (§2)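 Labeling detected as mass additions in deconvoluted intact-protein LCMS-TOF spectra. Protein at 1 μM in PBS was first mixed with one fragment per well on ice for 15 min, followed by 10 min UV exposure at 302 nm.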

[2] = test system: carbonic anhydrase II (CA); test: Intact protein MS photoaffinity labeling screen, carbonic anhydrase; conditions: intact protein MS after 10 min irradiation
Method in brief: as §1

STAT5B-NTD [3] = test system: T2, STAT5B-NTD; test: Intact MS photoaffinity labeling screen, STAT5B-NTD (365 nm, UHPLC-MS); conditions: for MS labeling percentage, STAT5B: STAT5B-NTD, 365 nm 10 min, no photocatalyst; for STAT5B-NTD: experimental hit status flag (0/1); for experimental hit status STAT5B-NTD: 0/1 flag;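 as to MS labeling percentage, STAT5B: 0.17 µL of 100 mM DMSO fragment stock added to the protein sample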
T2 construct: His-SUMO (N, cleaved yes); made in house; host or cells: E. coli BL21 RILP
Method in brief: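 UV irradiation at 365 nm for 10 min at 4 °C. Labeling read by intact-protein UHPLC-MS, positive ion mode, m/z 100–2000.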

KRas^G12D = test system: T3, KRas^G12D; test: Intact MS photoaffinity labeling screen, KRas G12D (302 nm, LCMS-TOF); conditions: for MS labeling percentage, KRas: KRas G12D, 302 nm 10 min; for KRAS-G12D: experimental hit status flag (0/1); for experimental hit status KRAS-G12D: 0/1 flag
T3 construct: purchased GSK/GenScript
Method in brief: as §2

myoglobin (Myo) = test: Intact protein MS photoaffinity labeling screen, myoglobin; conditions: intact protein MS after 10 min irradiation
Method in brief: as §1

STAT5B-NTD [4] = test system: T2, STAT5B-NTD; test: Intact MS labeling screen, STAT5B-NTD conjugated with photocatalyst Ir-G2-PEG3-COOH (450 nm); conditions: 450 nm 10 min;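 also: 0.14 µL of 100 mM DMSO fragment stock added to the conjugate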
Method in brief: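 Ir-G2-PEG3-COOH photocatalyst (10 eq) activated 30 min with EDC/NHS/BOP, then conjugated to STAT5B-NTD (7 µM) overnight at RT or 1 h at 37 °C in dark. PhP added, 1 h dark, then 450 nm irradiation 10 min at 4 °C; labeling read by intact LC-MS, positive ion mode, m/z 100–2000.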

[5] = hit flag 1/0, sheet PhP, photoaffinity labeling screen
[6] = sheet PhP, experimental hit status flag given as 0 or 1
[7] = PhP library sheet "PhP", binary flag printed as 0 or 1, key not given

MS labeling percentage, CA [2] [%]	Compound	Labeling of the other protein targets (vs. preferred target) [1]	MS labeling percentage, Lyo (lysozyme (Lyo)) [%]	MS labeling percentage, BRD4 (BRD4-BD1) [%]	MS labeling percentage, STAT5B (STAT5B-NTD [3]) [%]	MS labeling percentage, KRas (KRas^G12D) [%]	MS labeling percentage, Myo (myoglobin (Myo)) [%]	MS labeling percentage, STAT5B+photocat (STAT5B-NTD [4]) [%]	experimental hit status BRD4-BD1 (BRD4-BD1)	experimental hit status STAT5B-NTD (STAT5B-NTD [3])	experimental hit status KRAS-G12D (KRas^G12D)	BRD4-BD1 (experimental hit status) (BRD4-BD1; [5])	STAT5B-NTD (experimental hit status) (STAT5B-NTD [3]; [5])	KRAS-G12D (experimental hit status) (KRas^G12D; [5])	further results
4.7	Cn1ccnc1CCNC(=O)CCC1(C)N=N1 [PhP003, Cn1ccnc1CCNC(=O)CCC2(C)N=N2]	> 1.1% and < 1.1%	0	1.1	0	0.8	0.2	0.8							BRD4-BD1 (BRD4-BD1): 0; STAT5B-NTD (STAT5B-NTD [3]): 0; KRAS-G12D (KRas^G12D): 0
0.9	CC1(CCC(=O)NC2CCN(c3ccc(F)cc3)CC2)N=N1 [PhP012, N1=NC1(C)CCC(=O)NC2CCN(CC2)c3ccc(F)cc3]	> 3% and < 3%	2.6	2.8	0	15.8	1	1							BRD4-BD1 (BRD4-BD1): 0; STAT5B-NTD (STAT5B-NTD [3]): 0; KRAS-G12D (KRas^G12D): 0
0.9	Cc1cccc(-c2cnc(CNC(=O)CCC3(C)N=N3)[nH]2)c1 [PhP037, Cc1cccc(c1)-c2cnc([nH]2)CNC(=O)CCC3(C)N=N3]		0	4.8	2	11.2	1.4	1.5	0	0	0				Labeling efficiency over all protein targets (mean ± spread) [1]: 3.4 ± 3.8%
0.7	CC1(CCC(=O)NCc2cc3ccccc3[nH]2)N=N1 [PhP040, N1=NC1(C)CCC(=O)NCc(c2)[nH]c(c23)cccc3]	> 3% and < 3%	0.3	2.1	75	1.9	0.5	74				0	0	0	
1.2	CC1(CCC(=O)NCc2nc3ncccc3[nH]2)N=N1 [PhP053, N1=NC1(C)CCC(=O)NCc(n2)[nH]c(c23)cccn3]	> 2% and < 2%	0	6.7	0	2	0.6	1				1	0	0	
0.1	Cc1c[nH]c(=O)n1-c1cccc(CNC(=O)CCC2(C)N=N2)c1 [PhP077, Cc1c[nH]c(=O)n1-c2cccc(c2)CNC(=O)CCC3(C)N=N3]	> 3% and < 3%	0		20	0.7	0.2	11.5							BRD4-BD1 (experimental hit status) (BRD4-BD1; [6]): 0; STAT5B-NTD (experimental hit status) (STAT5B-NTD [3]; [6]): 0; KRAS-G12D (experimental hit status) (KRas^G12D; [6]): 0
3	Cc1noc(C)c1-c1ccc(CNC(=O)CCC2(C)N=N2)cc1 [PhP080, Cc1noc(C)c1-c2ccc(cc2)CNC(=O)CCC3(C)N=N3]		7.7		1	3.2	3	21.1							Labeling efficiency over all protein targets (mean ± spread) [1]: 3.6 ± 2.2%; BRD4-BD1 (experimental hit status) (BRD4-BD1; [7]): 0; STAT5B-NTD (experimental hit status) (STAT5B-NTD [3]; [7]): 0; KRAS-G12D (experimental hit status) (KRas^G12D; [7]): 0

Second part, the molecule before the results:

Compound	MS labeling percentage, CA [2] [%]	Labeling of the other protein targets (vs. preferred target) [1]	MS labeling percentage, Lyo (lysozyme (Lyo)) [%]	MS labeling percentage, BRD4 (BRD4-BD1) [%]	MS labeling percentage, STAT5B (STAT5B-NTD [3]) [%]	MS labeling percentage, KRas (KRas^G12D) [%]	MS labeling percentage, Myo (myoglobin (Myo)) [%]	MS labeling percentage, STAT5B+photocat (STAT5B-NTD [4]) [%]	experimental hit status BRD4-BD1 (BRD4-BD1)	experimental hit status STAT5B-NTD (STAT5B-NTD [3])	experimental hit status KRAS-G12D (KRas^G12D)	BRD4-BD1 (experimental hit status) (BRD4-BD1; [5])	STAT5B-NTD (experimental hit status) (STAT5B-NTD [3]; [5])	KRAS-G12D (experimental hit status) (KRas^G12D; [5])	further results
COc1ccc(S(=O)(=O)N2CCC(NC(=O)CCC3(C)N=N3)CC2)cc1 [PhP018, COc1ccc(cc1)S(=O)(=O)N2CCC(CC2)NC(=O)CCC3(C)N=N3]	17.7		3.7	65.5	0	42	19.9	0.7	0	0	0				Number of proteins labeled ([1]; of the six protein targets): four
COc1ccc(CCNC(=O)CCC2(C)N=N2)c2ccccc12 [PhP034, c1cccc(c12)c(OC)ccc2CCNC(=O)CCC3(C)N=N3]	4.7		1.7	10.6	0	67.8	1.7	1.1	0	0	0				Number of targets labeled in higher than 10% amount ([1]; of the six protein targets): two
CC1(CCC(=O)NCCNS(=O)(=O)c2cccc([N+](=O)[O-])c2)N=N1 [PhP035, N1=NC1(C)CCC(=O)NCCNS(=O)(=O)c2cccc(c2)N(=O)=O]	1.8		0.3	3.7	0	2	1.3	9.7	0	0	0				Labeling efficiency over all protein targets (mean ± spread) [1]: 1.5 ± 1.2%
COc1ccc(OC)c(C(O)C(C)NC(=O)CCC2(C)N=N2)c1 (stereo not drawn) [PhP038, COc1ccc(OC)c(c1)C(O)C(C)NC(=O)CCC2(C)N=N2]	3.6		3.6	25.5	4.8	62.1	1.1	5.1				0	0	0	Number of targets labeled in higher than 10% amount ([1]; of the six protein targets): two
CCN(CCCNC(=O)CCC1(C)N=N1)c1ccccc1 [PhP048, c1ccccc1N(CC)CCCNC(=O)CCC2(C)N=N2]	0	> 3% and < 3%	2.1	0.4	2.9	29.4	0	3.2				0	0	0	
CCCc1nn(C)c(C(N)=O)c1NC(=O)CCC1(C)N=N1 [PhP082, CCCc1nn(C)c(C(=O)N)c1NC(=O)CCC2(C)N=N2]	0	> 0.5% and < 0.5%	0	0.2	0	0	52.9	2.4							BRD4-BD1 (experimental hit status) (BRD4-BD1; [7]): 0; STAT5B-NTD (experimental hit status) (STAT5B-NTD [3]; [7]): 0; KRAS-G12D (experimental hit status) (KRas^G12D; [7]): 0
